Results as given in US20070117864A1, “Composition for preventing and treating hepatoma” (Tokyo University of Agr. & Tech. TLO Co., Ltd., priority 2003, published 2007).

Test: liver lipid levels in hepatoma-bearing rats
Format: in vivo, rat
Details: mean ± SEM of 11 rats
Description: Male Donryu rats of four weeks old were purchased from NRC Haruna, Gumma, Japan, and were preliminarily fed for 6 days in quintuple cages in a room with a controlled environment with light period of 8:00 to 20:00, room temperature of 22±1° C., and relative humidity of 60±5%. For the first 3 days, the animals were fed ad libitum with a stock pellet diet (CE-2; CLEA Japan, Tokyo), and for the next 3 days, they were fed a basal diet containing 20% milk casein (20C) (Table 1) ad libitum together with tap water in a glass container. Following the completion of this preparatory raising, the rats were divided into three groups (11 animals per group) with equal average body weights of the respective groups were equal, and 1.0×10^7 of AH109A cells suspended in PBS (−) were transplanted in the back of all the rats. From the time immediately after transplantation, in the respective experimental groups, the animals were fed the experimental diets shown in Table 2.
During the experimental period, the body weight, food intake and solid tumor size (sum of length, width and height) were measured everyday. On the day that the animals were killed, animals were deprived of experimental diets at 9:00, but freely given water until they were killed 4 hours later. Blood was collected from carotid, and the liver and solid tumors were excised. The collected blood was allowed to stand for approximately 2 hours at room temperature, and then centrifuged for 10 minutes at 3000 rpm (1750×g), 4° C., to obtain serum. This blood serum was frozen and stored at −20° C. The livers and solid tumors were washed with physiological saline, blotted on filter paper, and weighed. Furthermore, feces from the 19th to 21st days after transplantation were collected, and these feces were frozen and stored at −20° C. for the measurement of the amounts of steroids excreted from the body.
Total lipids were extracted from the liver for the measurement of lipid levels by the method of Folch et al. (FOLCH J, LEES M, SLOAN-STANLEY G H, A simple method for the isolation and purification of total lipids from animal tissues, J. Biol. Chem. 226: 497-509, 1957). Approximately 0.5 g of liver tissue was weighed out, this tissue was homogenized using a Polytron homogenizer (Type PT10/35, Kinematica, Switzerland) in 5 ml of methanol; then, 10 ml of chloroform was added and mixed, the resulting preparation was allowed to stand overnight, and then filtered. […]
The Ch content was measured by the Zak method (Zak B., Simple rapid microtechnic for serum total cholesterol, Am. J. Clin. Path. 27, 583-588, 1957). […] The resulting mixture was agitated and this preparation was allowed to stand until cool; then, the absorbance at 560 nm thereof was measured with Ch as a standard. […]

SMILES: O=C1OCC(Cc2cccc(O)c2)C1Cc1cccc(O)c1 (stereo not shown) [Enterolactone, enterolactone]
- Liver lipid level Total cholesterol (diet 10 ppm): 5.15 ± 0.43 μmol/g liver
- Liver lipid level Triglyceride (diet 10 ppm): 43.8 ± 3.83 μmol/g liver
- Liver lipid level Total cholesterol (diet 100 ppm): 5.47 ± 0.40 μmol/g liver
- Liver lipid level Triglyceride (diet 100 ppm): 42.8 ± 7.05 μmol/g liver
